Test results reported in patent publication US20240238445A1, “INHIBITORS AND USES THEREOF” (NEURACLE SCIENCE CO., LTD., priority 2021, published 2024).
Square brackets hold non-standard residues; d marks the D form. Ends that are not written are not given here.

System: hippocampal neurons co-treated with toxic Aβ oligomer
Assay: Amyloid beta-induced synapse loss in mouse primary hippocampal neurons
Assay type: cell-based
Settings: 6.6 nM
Description: Alzheimer's disease (AD) is tightly associated with the dysmetabolism of amyloid-β (Aβ). To begin assessing whether the polypeptides provided herein (i.e., comprising the FAM19A5 binding domain of LRRC4 protein family members) could have any therapeutic effects on AD, the effect of various FB-21 peptide fragments described herein on the deformation of synapse induced by toxic Aβ oligomer and following structural recovery was assessed. Specifically, the following FB-21 peptide fragments were tested: FB-21, FB-JM-31 and FB-BBB-39 (see Example 10).
Aβ42 (#20276) peptide was purchased from AnaSpec (Fremont, USA). […]
Hippocampal neurons were treated with 6.6 nM FB-21, 6.6 nM of FB-13-JM and 6.6 nM of FB-13-BBBX2 at 14, 17 and 20 DIV to determine the level of synaptogenesis at 21 DIV by immunostaining SYP, a presynapse marker protein and PSD95, a postsynapse marker protein. To quantify fluorescence intensity for SYN and PSD95 and number of colocalized voxels between SYN and PSD95 signals, z-stack confocal images of 3 μm in depth were converted to 3D images using IMARIS software (IMARIS9.0, Bitplane AG, Zurich, Switzerland). The “Surface tool” of the IMARIS software was used to exclude all the signals detected in neuronal cell bodies, and number of colocalized voxels between SYN and PSD95 signals in neurites were calculated using the “Coloc tool”. […]

For “nYTYFTTVTVETLETQPGEEALDEVMKTTKa ([dN]YTYFTTVTVETLETQPGEEALDEVMKTTK[dA]; also: terminal modifications n and a on first and last residues) [FB peptide with JM sequence]”, the “colocalized voxels for PSD95 and synaptophysin” value was “significant increase in colocalized voxels”.
